Test results reported in US12077503B2, “Substituted cyclic amides and their use as herbicides” (FMC CORPORATION, priority 2015, dated 2024).

How the values were obtained:
Type in all cases: in vivo
[1] = test system: giant foxtail (Setaria faberi); assay: Test G Pre-Emergence Protocol; settings: Setaria faberi, pre-emergence, 312 h, evaluated after 13 days; for pest or weed control at 15.625 g/ha: 15.625 g ai/ha; for pest or weed control at 15.625 g/ha / pest or weed control at 250 g/ha: read-out: Foxtail, Giant damage rating (100=total damage to plant; 0=no damage to plant); for pest or weed control at 62.5 g/ha: 62.5 g ai/ha, 100=total damage to plant, 0=no damage to plant, read-out: Foxtail, Giant damage rating; for pest or weed control at 250 g/ha: 250 g ai/ha
Outline: (§1)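 Pots of seeds in standard soil were grown for one day in a glasshouse (24/16 °C day/night, 14 h light, 65% humidity), then sprayed with compound in acetone/water 50:50 with 0.5% Tween 20 at 15.625, 62.5 or 250 g/ha. Damage was scored after 13 days on a 0 (none) to 100 (total) scale.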

[2] = test system: barnyardgrass (Echinochloa crus-galli); assay: Test G Pre-Emergence Protocol; settings: Echinochloa crus-galli, pre-emergence, 312 h, evaluated after 13 days; for pest or weed control at 15.625 g/ha: 15.625 g ai/ha; for pest or weed control at 15.625 g/ha / pest or weed control at 250 g/ha: read-out: Barnyardgrass damage rating (100=total damage to plant; 0=no damage to plant); for pest or weed control at 62.5 g/ha: 62.5 g ai/ha, 100=total damage to plant, 0=no damage to plant, read-out: Barnyardgrass damage rating; for pest or weed control at 250 g/ha: 250 g ai/ha
Outline: as §1

[3] = test system: ivy-leaved morning glory (Ipomoea hederacea); assay: Test G Pre-Emergence Protocol; settings: Ipomoea, pre-emergence, 312 h, evaluated after 13 days; for pest or weed control at 15.625 g/ha: 15.625 g ai/ha; for pest or weed control at 15.625 g/ha / pest or weed control at 250 g/ha: read-out: Morningglory, Ivy-leaved damage rating (100=total damage to plant; 0=no damage to plant); for pest or weed control at 62.5 g/ha: 62.5 g ai/ha, 100=total damage to plant, 0=no damage to plant, read-out: Morningglory, Ivy-leaved damage rating; for pest or weed control at 250 g/ha: 250 g ai/ha
Outline: as §1

corn (Zea mays) [4] = assay: Test G Pre-Emergence Protocol; settings: Zea mays, pre-emergence, 312 h, evaluated after 13 days; for plant injury at 15.625 g/ha: 15.625 g ai/ha; for plant injury at 15.625 g/ha / plant injury at 250 g/ha: read-out: Corn damage rating (100=total damage to plant; 0=no damage to plant); for plant injury at 62.5 g/ha: 62.5 g ai/ha, 100=total damage to plant, 0=no damage to plant, read-out: Corn damage rating; for plant injury at 250 g/ha: 250 g ai/ha
Outline: as §1

[5] = test system: redroot pigweed (Amaranthus retroflexus); assay: Test G Pre-Emergence Protocol; settings: Amaranthus retroflexus, pre-emergence, 312 h, evaluated after 13 days; for pest or weed control at 15.625 g/ha: 15.625 g ai/ha; for pest or weed control at 15.625 g/ha / pest or weed control at 250 g/ha: read-out: Pigweed, Redroot damage rating (100=total damage to plant; 0=no damage to plant); for pest or weed control at 62.5 g/ha: 62.5 g ai/ha, 100=total damage to plant, 0=no damage to plant, read-out: Pigweed, Redroot damage rating; for pest or weed control at 250 g/ha: 250 g ai/ha
Outline: as §1

[6] = test system: velvetleaf (Abutilon theophrasti); assay: Test G Pre-Emergence Protocol; settings: Abutilon theophrasti, pre-emergence, 312 h, evaluated after 13 days; for pest or weed control at 15.625 g/ha: 15.625 g ai/ha; for pest or weed control at 15.625 g/ha / pest or weed control at 250 g/ha: read-out: Velvetleaf damage rating (100=total damage to plant; 0=no damage to plant); for pest or weed control at 62.5 g/ha: 62.5 g ai/ha, 100=total damage to plant, 0=no damage to plant, read-out: Velvetleaf damage rating; for pest or weed control at 250 g/ha: 250 g ai/ha
Outline: as §1

[7] = test system: giant foxtail (Setaria faberi); assay: Test G Post-Emergence Protocol; settings: Setaria faberi, post-emergence, 312 h, read-out: Foxtail, Giant damage rating; for pest or weed control at 15.625 g/ha: 15.625 g ai/ha, evaluated after 13 days (100=total damage to plant; 0=no damage to plant); for pest or weed control at 62.5 g/ha: 62.5 g ai/ha; for pest or weed control at 62.5 g/ha / pest or weed control at 250 g/ha: evaluated after 13 days, 100=total damage to plant, 0=no damage to plant; for pest or weed control at 250 g/ha: 250 g ai/ha
Outline: (§2)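 Foliar application was made 8 days after sowing, using an aqueous spray of the active in acetone/water (50:50) with 0.5% Tween 20, at doses of 15.625, 62.5 or 250 g/ha. Injury was assessed 13 days later, where 100 meant the plant was fully damaged.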

[8] = test system: barnyardgrass (Echinochloa crus-galli); assay: Test G Post-Emergence Protocol; settings: Echinochloa crus-galli, post-emergence, 312 h, read-out: Barnyardgrass damage rating; for pest or weed control at 15.625 g/ha: 15.625 g ai/ha, evaluated after 13 days (100=total damage to plant; 0=no damage to plant); for pest or weed control at 62.5 g/ha: 62.5 g ai/ha; for pest or weed control at 62.5 g/ha / pest or weed control at 250 g/ha: evaluated after 13 days, 100=total damage to plant, 0=no damage to plant; for pest or weed control at 250 g/ha: 250 g ai/ha
Outline: as §2

[9] = test system: ivy-leaved morning glory (Ipomoea hederacea); assay: Test G Post-Emergence Protocol; settings: Ipomoea, post-emergence, 312 h, read-out: Morningglory, Ivy-leaved damage rating; for pest or weed control at 15.625 g/ha: 15.625 g ai/ha, evaluated after 13 days (100=total damage to plant; 0=no damage to plant); for pest or weed control at 62.5 g/ha: 62.5 g ai/ha; for pest or weed control at 62.5 g/ha / pest or weed control at 250 g/ha: evaluated after 13 days, 100=total damage to plant, 0=no damage to plant; for pest or weed control at 250 g/ha: 250 g ai/ha
Outline: as §2

corn (Zea mays) [10] = assay: Test G Post-Emergence Protocol; settings: Zea mays, post-emergence, 312 h, read-out: Corn damage rating; for plant injury at 15.625 g/ha: 15.625 g ai/ha, evaluated after 13 days (100=total damage to plant; 0=no damage to plant); for plant injury at 62.5 g/ha: 62.5 g ai/ha; for plant injury at 62.5 g/ha / plant injury at 250 g/ha: evaluated after 13 days, 100=total damage to plant, 0=no damage to plant; for plant injury at 250 g/ha: 250 g ai/ha
Outline: as §2

[11] = test system: redroot pigweed (Amaranthus retroflexus); assay: Test G Post-Emergence Protocol; settings: Amaranthus retroflexus, post-emergence, 312 h, read-out: Pigweed, Redroot damage rating; for pest or weed control at 15.625 g/ha: 15.625 g ai/ha, evaluated after 13 days (100=total damage to plant; 0=no damage to plant); for pest or weed control at 62.5 g/ha: 62.5 g ai/ha; for pest or weed control at 62.5 g/ha / pest or weed control at 250 g/ha: evaluated after 13 days, 100=total damage to plant, 0=no damage to plant; for pest or weed control at 250 g/ha: 250 g ai/ha
Outline: as §2

[12] = test system: velvetleaf (Abutilon theophrasti); assay: Test G Post-Emergence Protocol; settings: Abutilon theophrasti, post-emergence, 312 h, read-out: Velvetleaf damage rating; for pest or weed control at 15.625 g/ha: 15.625 g ai/ha, evaluated after 13 days (100=total damage to plant; 0=no damage to plant); for pest or weed control at 62.5 g/ha: 62.5 g ai/ha; for pest or weed control at 62.5 g/ha / pest or weed control at 250 g/ha: evaluated after 13 days, 100=total damage to plant, 0=no damage to plant; for pest or weed control at 250 g/ha: 250 g ai/ha
Outline: as §2

## CN1C[C@H](c2cccc(C(F)(F)F)c2)[C@@H](C(=O)Nc2cnccc2C#N)C1=O (racemic) [Compound 1761]
[1]
  pest or weed control at 15.625 g/ha: 0%
  pest or weed control at 62.5 g/ha: 40%
  pest or weed control at 250 g/ha: 70%
[2]
  pest or weed control at 15.625 g/ha: 0%
  pest or weed control at 62.5 g/ha: 30%
  pest or weed control at 250 g/ha: 70%
[3]
  pest or weed control at 15.625 g/ha: 0%
  pest or weed control at 62.5 g/ha: 0%
  pest or weed control at 250 g/ha: 0%
Corn (Zea mays) [4]
  plant injury at 15.625 g/ha: 0%
  plant injury at 62.5 g/ha: 0%
  plant injury at 250 g/ha: 0%
[5]
  pest or weed control at 15.625 g/ha: 0%
  pest or weed control at 62.5 g/ha: 0%
  pest or weed control at 250 g/ha: 0%
[6]
  pest or weed control at 15.625 g/ha: 0%
  pest or weed control at 62.5 g/ha: 0%
  pest or weed control at 250 g/ha: 0%
[7]
  pest or weed control at 15.625 g/ha: 0%
  pest or weed control at 62.5 g/ha: 0%
  pest or weed control at 250 g/ha: 70%
[8]
  pest or weed control at 15.625 g/ha: 0%
  pest or weed control at 62.5 g/ha: 0%
  pest or weed control at 250 g/ha: 70%
[9]
  pest or weed control at 15.625 g/ha: 0%
  pest or weed control at 62.5 g/ha: 40%
  pest or weed control at 250 g/ha: 50%
Corn (Zea mays) [10]
  plant injury at 15.625 g/ha: 0%
  plant injury at 62.5 g/ha: 0%
  plant injury at 250 g/ha: 0%
[11]
  pest or weed control at 15.625 g/ha: 0%
  pest or weed control at 62.5 g/ha: 0%
  pest or weed control at 250 g/ha: 10%
[12]
  pest or weed control at 15.625 g/ha: 0%
  pest or weed control at 62.5 g/ha: 0%
  pest or weed control at 250 g/ha: 10%

## CN1CCCC(NC(=O)[C@H]2C(=O)N(C)C[C@@H]2c2ccc(C(F)(F)F)cc2)C1=O (mixture of isomers) [Compound 1674]
[1]
  pest or weed control at 15.625 g/ha: 0%
  pest or weed control at 62.5 g/ha: 0%
  pest or weed control at 250 g/ha: 0%
[2]
  pest or weed control at 15.625 g/ha: 0%
  pest or weed control at 62.5 g/ha: 0%
  pest or weed control at 250 g/ha: 0%
[3]
  pest or weed control at 15.625 g/ha: 0%
  pest or weed control at 62.5 g/ha: 0%
  pest or weed control at 250 g/ha: 0%
Corn (Zea mays) [4]
  plant injury at 15.625 g/ha: 0%
  plant injury at 62.5 g/ha: 0%
  plant injury at 250 g/ha: 0%
[5]
  pest or weed control at 15.625 g/ha: 0%
  pest or weed control at 62.5 g/ha: 0%
  pest or weed control at 250 g/ha: 0%
[6]
  pest or weed control at 15.625 g/ha: 0%
  pest or weed control at 62.5 g/ha: 0%
  pest or weed control at 250 g/ha: 0%
[7]
  pest or weed control at 15.625 g/ha: 0%
  pest or weed control at 62.5 g/ha: 0%
  pest or weed control at 250 g/ha: 20%
[8]
  pest or weed control at 15.625 g/ha: 0%
  pest or weed control at 62.5 g/ha: 0%
  pest or weed control at 250 g/ha: 0%
[9]
  pest or weed control at 15.625 g/ha: 0%
  pest or weed control at 62.5 g/ha: 0%
  pest or weed control at 250 g/ha: 0%
Corn (Zea mays) [10]
  plant injury at 15.625 g/ha: 0%
  plant injury at 62.5 g/ha: 0%
  plant injury at 250 g/ha: 0%
[11]
  pest or weed control at 15.625 g/ha: 0%
  pest or weed control at 62.5 g/ha: 0%
  pest or weed control at 250 g/ha: 0%
[12]
  pest or weed control at 15.625 g/ha: 0%
  pest or weed control at 62.5 g/ha: 0%
  pest or weed control at 250 g/ha: 0%

## Cc1c(F)cccc1NC(=O)[C@@H]1C(=O)N(C)C[C@H]1c1cccc(C(C)(C)F)c1 (racemic) [Compound 1827]
[1]
  pest or weed control at 15.625 g/ha: 40%
  pest or weed control at 62.5 g/ha: 90%
  pest or weed control at 250 g/ha: 90%
[2]
  pest or weed control at 15.625 g/ha: 0%
  pest or weed control at 62.5 g/ha: 80%
  pest or weed control at 250 g/ha: 90%
[3]
  pest or weed control at 15.625 g/ha: 0%
  pest or weed control at 62.5 g/ha: 0%
  pest or weed control at 250 g/ha: 20%
Corn (Zea mays) [4]
  plant injury at 15.625 g/ha: 0%
  plant injury at 62.5 g/ha: 0%
  plant injury at 250 g/ha: 50%
[5]
  pest or weed control at 15.625 g/ha: 0%
  pest or weed control at 62.5 g/ha: 0%
  pest or weed control at 250 g/ha: 0%
[6]
  pest or weed control at 15.625 g/ha: 0%
  pest or weed control at 62.5 g/ha: 0%
  pest or weed control at 250 g/ha: 10%
[7]
  pest or weed control at 15.625 g/ha: 50%
  pest or weed control at 62.5 g/ha: 80%
  pest or weed control at 250 g/ha: 80%
[8]
  pest or weed control at 15.625 g/ha: 0%
  pest or weed control at 62.5 g/ha: 70%
  pest or weed control at 250 g/ha: 80%
[9]
  pest or weed control at 15.625 g/ha: 0%
  pest or weed control at 62.5 g/ha: 10%
  pest or weed control at 250 g/ha: 10%
Corn (Zea mays) [10]
  plant injury at 15.625 g/ha: 0%
  plant injury at 62.5 g/ha: 10%
  plant injury at 250 g/ha: 60%
[11]
  pest or weed control at 15.625 g/ha: 0%
  pest or weed control at 62.5 g/ha: 0%
  pest or weed control at 250 g/ha: 0%
[12]
  pest or weed control at 15.625 g/ha: 0%
  pest or weed control at 62.5 g/ha: 0%
  pest or weed control at 250 g/ha: 40%
